# From patent publication US20050004179A1, “Methods and materials for treating, detecting, and reducing the risk of developing Alzheimer's Disease” (priority 2003, published 2005)
# Key:
# [1] = Body weights and food consumption on rosiglitazone-supplemented diet (tolerability); assay type: in vivo, mouse
# Source text: (§1) Male Tg2576 mice and non-transgenic littermates were purchased from Taconic Farms (Germantown, N.Y.). The Tg2576 mice overexpress the 695-isoform of the human amyloid precursor protein containing a double mutation originally identified in a large Swedish kindred (familial AD); spatial learning and memory deficits are evident at 9-11 months of age, prior to the formation of mature amyloid plaques (Kawarabayashi et al., “Age-Dependent Changes in Brain, CSF, and Plasma Amyloid β Protein in the Tg2576 Transgenic Mouse Model of Alzheimer's Disease,” J. Neurosci., 21:372-381 (2001) and Westerman et al., “The Relationship Between Aβ and Memory in the Tg2576 Mouse Model of Alzheimer's Disease.,” J. Neurosci., 22:1858-1867 (2002), which are hereby incorporated by reference). Mice were individually housed in ventilated microisolator cages.
# The following supplemented diet was used. Tablets of rosiglitazone maleate (Avandia™, GlaxoSmithKline) were provided by the Creighton University Diabetes Center. The tablets were pulverized and mixed with the AIN-93G purified rodent diet at a final dose of 30 mg/kg of food (Dyets, Inc.). This dose was chosen based on the results of studies in rats using a diet supplemented with rosiglitazone (Diep et al., “Structure, Endothelial Function, Cell Growth, and Inflammation in Blood Vessels of Angiotensin II-Infused Rats: Role of Peroxisome Proliferator-Activated Receptor-γ,” Circulation, 105:2296-2302 (2002), which is hereby incorporated by reference. Unmodified AIN-93G pellets were purchased as the control diet (Dyets, Inc.). The mice were placed on the diets at 9 months of age.
# To provide evidence for a relationship between insulin resistance and aberrant stress responses of Tg2576 mice, the animals were subjected to a diet containing the thiazolidinedione, rosiglitazone, in order to increase insulin sensitivity. The thiazolidinediones act as agonists of peroxisome proliferator-activated receptor-γ (“PPARγ”), which is a ligand-inducible transcription factor that regulates glucose and lipid metabolism (Desvergne et al., “Peroxisome Proliferator-Activated Receptors: Nuclear Control of Metabolism,” Endocr. Rev., 20:649-688 (1999), which is hereby incorporated by reference). The agonists of PPARγ attenuate insulin resistance by improving peripheral insulin sensitivity, and such agonists are currently being used clinically in the management of type 2 diabetes (Wagstaff et al., “Rosiglitazone: A Review of its Use in the Management of Type 2 Diabetes Mellitus,” Drugs 62:1805-1837 (2002), which is hereby incorporated by reference). […] More particularly, the following Table 1 summarizes body weights and food consumption for wild-type mice on the regular diet (Wt; n=7), Tg2576 mice on the diet supplemented with rosiglitazone maleate (Tr, AV; n=7), and for Tg2576 mice on the regular diet (Tr, C; n=5). Data are reported as means and standard deviations for the indicated weeks.
# [2] = system: Tg2576 mice; experiment: Stress response: serum corticosterone after overnight fasting; assay type: in vivo, mouse; settings: FIG. 5
# Source text: as §1
# Corticosterone and insulin were measured using the following procedures. For serum preparation, tail bleedings were carried out under a heating lamp, and the blood was collected into MICROTAINER™ Brand Tubes (Becton Dickinson, Franklin Lanes, N.J.). After allowing the blood to clot for 30-40 min, samples were centrifuged for 90 sec at 6000 g and stored at −80° C. until use. Serum corticosterone levels were measured using an enzyme immunoassay kit (Assay Designs, Inc., Ann Arbor, Mich.) with a 1 μl aliquot of each sample diluted 1:100 with assay buffer. The sensitivity of the assay was 26.99 pg/ml. Serum insulin levels were determined using the Ultra Sensitive Rat Insulin ELISA kit (Crystal Chem, Inc., Downers Grove, Ill.) using 5 μl of undiluted sample and mouse insulin standard. The sensitivity of the assay under these conditions was 100 pg/ml. All samples were measured in duplicate for both assays. Plates were read using the Bio-Tek ELx800UV Universal Microplate Reader.
# The following supplemented diet was used. Tablets of rosiglitazone maleate (Avandia™, GlaxoSmithKline) were provided by the Creighton University Diabetes Center. […]
# [3] = system: Tg2576 mice; assay type: in vivo
# Source text: as §1
# The following supplemented diet was used. Tablets of rosiglitazone maleate (Avandia™, GlaxoSmithKline) were provided by the Creighton University Diabetes Center. The tablets were pulverized and mixed with the AIN-93G purified rodent diet at a final dose of 30 mg/kg of food (Dyets, Inc.). […]
# [4] = system: Tg2576 mice; experiment: Insulin response: insulin-induced decline in blood glucose levels; assay type: in vivo, mouse
# Source text: as §1
# Insulin was administered and glucose was measured using the following procedures. A stock of human insulin (recombinant, 28.7 U.S.P. units/mg; Sigma) was prepared by dissolving 1 mg of powder in 1 ml of dH20 containing 1% glacial acetic acid. A 1:150 dilution in dH20 was used as the injection stock. Mice were administered the insulin solution by intraperitoneal injection. […]
# Insulin was administered to non-fasted Tg2576 and wild-type mice at 0.75 U/kg, and blood glucose levels were monitored. […]
# [5] = system: Tg2576 mice; experiment: Spatial learning and memory, 8-arm radial maze; settings: 15 weeks on drug-supplemented diet, approximately 4 mg/kg/day, FIG. 6
# [6] = 10-month-old Tg2576 mice, supplemented diet 4 weeks
compound,measurement,setting,value
"CN(CCOc1ccc(CC2SC(=O)NC2=O)cc1)c1ccccn1.O=C(O)/C=C\C(=O)O (centres unmarked) [rosiglitazone, rosiglitazone maleate]",Tolerability of the diet containing rosiglitazone,"[1]; mice, diet 30 mg/kg of food",well tolerated
same,Amount of rosiglitazone-supplemented food consumed over time,"[1]; mouse, in vivo",decreased over time
same,"Weight of mice, Week 1","[1]; mouse, in vivo",26.3 ± 3.2 g
same,"Weight of mice, Week 4","[1]; mouse, in vivo",26.2 ± 3.1 g
same,"Weight of mice, Week 7","[1]; mouse, in vivo",27.1 ± 3.3 g
same,Serum corticosterone levels after overnight fasting versus wild-type mice,[2]; [6],not significantly different
same,Serum corticosterone levels following overnight fasting versus Tg2576 mice on regular diet,[2]; [6],well below the levels reached in Tg2576 mice on the regular diet
same,Effect on stress response (figure legend),[2]; Tg2576 mice,normalizes the stress response
same,Deaths in the course of the study,[3]; 7 Tg2576 mice on rosiglitazone-supplemented diet (2 of 7 on unsupplemented diet died),None
same,Observed behaviour on handling,[3]; Tg2576 mice on rosiglitazone-supplemented diet,calmer and easier to handle
same,Insulin response of Tg2576 mice on unsupplemented diet versus Tg2576 mice on supplemented diet,"[4]; 10-month-old Tg2576 mice, 4 weeks on diet, insulin 0.75 U/kg",much weaker insulin response
same,Effect on insulin response (figure legend),"[4]; FIGS. 4A and 4B, Tg2576 mice, supplemented diet for 4 weeks",normalizes the insulin response
same,"Number of reference memory errors versus control Tg2576 mice (Tr,C)",[5],fewer than the number of reference memory errors made by Tg2576 not given the drug
same,Number of reference memory errors versus wild-type mice,[5],as many reference memory errors as the wild-type mice
